Assay results from patent US11714094B2, “Composition comprising prostacyclin andor analogues thereof for treatment of acute critically ill patients” (priority 2015, dated 2023).
Where two headings read alike, the source gives them in different places.

Key:
[1] = system: functional whole blood hemostasis; experiment: Randomized placebo controlled trial of i.v. Ilomedin in Whipple surgery patients: TEG; format: in vivo, human
Method: (§1) TEG was performed according to the manufactures recommendations. Endothelial function was evaluated by measuring plasma levels of endothelial derived biomarkers by commercially available ELISA kits. Biomarkers indicating: Endothelial glycocalyx damage (syndecan-1), endothelial cell damage (thrombomodulin) and necrosis (nucleosomes) were investigated.

[2] = system: endothelial derived biomarkers; experiment: Randomized placebo controlled trial of 24 hours i.v. Ilomedin in AMI PCI patients: plasma endothelial derived biomarkers by ELISA; format: in vivo, human; conditions: 0.5 ng/kg/min i.v. for 24 hours, baseline to 48 h
Method: (§2) Ilomedin® (iloprost, prostacyclin analog) infusion at a dose of 0.5 ng/kg/min compared to placebo in 17 patients with acute myocardial infarction (AMI) undergoing percutanuous coronary intervention (PCI) with stent implantation [Holmvang et al 2012]. Patients randomized to 24 hours active (n=9) or placebo (n=8) therapy were evaluated for hemodynamics, bleeding events and for functional whole blood hemostasis (Multiplate, TEG) and endothelial function in blood sampled before iloprost infusion (baseline), during infusion (1 h, 6 h and 24 h) and 24 hours after ceasing iloprost infusion (48 h). Bleeding was evaluated by GUSTO criteria (severe, moderate, mild, none) and hemostasis was evaluated by Multiplate and TEG according to the manufactures recommendations. Endothelial function was evaluated by measuring plasma levels of endothelial derived biomarkers by commercially available ELISA kits. Biomarkers indicating: Endothelial glycocalyx damage (syndecan-1), endothelial cell damage (thrombomodulin), endothelial cell activation (sE-selectin, ICAM-1) and anticoagulation (protein C) were investigated.

[3] = system: endothelial derived biomarkers; experiment: Randomized placebo controlled trial of i.v. Ilomedin in Whipple surgery patients: plasma endothelial derived biomarkers by ELISA; format: in vivo, human; conditions: 1 ng/kg/min i.v.
Method: as §1

[4] = Randomized placebo controlled trial of 24 hours i.v. Ilomedin in AMI PCI patients: hemodynamics and bleeding events; format: in vivo, human; conditions: 0.5 ng/kg/min i.v. for 24 hours, during or after infusion
Method: as §2

[5] = Whipple surgery patients
Method: The inventors conducted a randomized placebo controlled double blind clinical trial investigating safety and efficacy of intra- and post-operative i.v. Ilomedin® (iloprost, prostacyclin analog) infusion at a dose of 1 ng/kg/min compared to placebo in 16 patients undergoing whipple surgery at Rigshospitalet, a tertiary level teaching University hospital in Copenhagen, Denmark. The inclusion criteria were adults (age […]) undergoing whipple surgery based on surgical indication due to cancer/dysplasia, familial adenomatous polyposis or inflammation/pancreatitis.
Data on demography, co-morbidities, surgical time and 28-day mortality were assessed. Hemodynamics were measured continuously (heart rate (HR), systolic, diastolic and mean arterial pressure (SBT, DBT, MAP)) or at baseline, end of surgery and 6 h and 24 h post-operative (systemic vascular resistance (SVR), stroke volume (SV), central venous pressure (CVP)). The volume and number of units of red blood cells (RBC), plasma and platelet concentrates administered were recorded at the end of surgery, 6 h and 24 h post-operative. Bleeding volume was assessed intra-operative and 6 h and 24 h post-operative. The volume of crystalloids and colloids (only albumin was allowed) was, together with urine output, recorded intra-operative and 6 h and 24 h post-operative.
Blood samples for evaluation of functional whole blood hemostasis (TEG) and endothelial function were collected pre-commencing infusion with study drug (baseline), at the end of surgery (post-op) and 6 h after surgery just before ceasing study drug infusion (6 h). Blood samples for routine biochemistry (hemoglobin, creatinine and lactate) were collected at baseline, post-op and 6 h and 24 h post-operative.

[6] = system: functional whole blood hemostasis; experiment: Randomized placebo controlled trial of 24 hours i.v. Ilomedin in AMI PCI patients: Multiplate, TEG; format: in vivo, human; conditions: 0.5 ng/kg/min i.v. for 24 hours, during or after infusion
Method: The inventors conducted a randomized placebo controlled double blind clinical trial investigating safety and efficacy of 24 hours i.v. Ilomedin® (iloprost, prostacyclin analog) infusion at a dose of 0.5 ng/kg/min compared to placebo in 17 patients with acute myocardial infarction (AMI) undergoing percutanuous coronary intervention (PCI) with stent implantation [Holmvang et al 2012]. Patients randomized to 24 hours active (n=9) or placebo (n=8) therapy were evaluated for hemodynamics, bleeding events and for functional whole blood hemostasis (Multiplate, TEG) and endothelial function in blood sampled before iloprost infusion (baseline), during infusion (1 h, 6 h and 24 h) and 24 hours after ceasing iloprost infusion (48 h).

[7] = system: endothelial derived biomarkers; experiment: Healthy volunteer study, 2 hours i.v. Ilomedin infusion: plasma endothelial derived biomarkers by ELISA; format: in vivo, human; conditions: 1 ng/kg/min i.v. for 2 hours
Method: Blood samples for endothelial function were collected at the following time-points: Before the infusion (0 h), after 30 min infusion (30 min), immediately after ceasing the infusion (2 h) and 2 hours after the end of iloprost infusion. Endothelial function was evaluated by measuring plasma levels of endothelial derived biomarkers by commercially available ELISA kits. Biomarkers indicating: Endothelial glycocalyx damage (syndecan-1), endothelial cell damage (thrombomodulin) and endothelial cell anticoagulation (protein C) were investigated. Furthermore, we measured plasma concentration of prostacyclin (FIG. 3).

[8] = cited from earlier work
[9] = system: clot formation and platelet aggregation; experiment: Functional whole blood hemostatic assays (TEG, Multiplate) under low-dose prostacyclin infusion; format: in vivo, human
Text: However, as for the vasodilatory effect, the antiaggretory effect is highly dose-dependent [Moncada et al 1976; O'Grady et al 1980]. […] The term “thrombelastography” or “TEG” refers to a commercially available viscoelastic whole blood hemostasis assay employing citrated or non-anticoagulated blood. The TEG analyzer uses a small whole blood sample in a rotating cup and a pin suspended in the blood by a torsion wire, which is monitored for motion. To speed up the clot formation, a standardized amount of an activator of coagulation (e.g. kaolin, tissue factor) may be added to the cup just before the pin is placed in the cup. The TEG assay is suitable for determining important parameters in the clotting activity (clot initiation time, clot build up dynamics), clot strength (maximum amplitude (MA)) and clot degradation (fibrinolysis). The TEG system's approach to monitoring patient hemostasis is based on the premise that the end result of the hemostatic process is the clot. The clot's physical properties determine whether the patient will have normal hemostasis, or will be at increased risk for hemorrhage or thrombosis. The term “Multiplate” refers to a commercially available impedance aggregometry based whole blood platelet function analyzer employing anti-coagulated blood. The Multiplate analyzer uses a small whole blood sample in a chamber with two pairs of platinum electrodes. Standardized platelet agonists are added to the blood in the chamber to investigate specific platelet activation/signaling pathways. The Multiplate assay is based on the attachment of platelets on two platinum electrodes, resulting in an increase of electrical resistance between the electrodes.

[10] = system: endothelial derived biomarkers; experiment: Healthy volunteer study, 2 hours i.v. Flolan infusion: plasma endothelial derived biomarkers by ELISA; format: in vivo, human; conditions: healthy volunteers, 4 ng/kg/min i.v. for 2 hours
Method: The study was conducted investigating the influence of 2 hours i.v. Flolan® (epoprostenol sodium, prostacyclin analog) infusion at a dose of 4 ng/kg/min in eight healthy male volunteers. Endothelial function was evaluated in the study e.g. by measuring plasma levels of endothelial derived biomarkers by commercially available ELISA kits. Biomarkers indicating: Endothelial glycocalyx damage (syndecan-1), endothelial cell damage (thrombomodulin) or necrosis (nucleosomes, HMGB1), endothelial cell activation (PAI-1) and endothelial cell anticoagulation (protein C, antithrombin) were investigated (FIG. 2).

[11] = Retrospective study of critically ill ICU patients on CRRT with pre-filter Flolan or heparin; format: in vivo, human; conditions: for 90-day mortality / 365-day mortality / platelet count during CRRT: agent given in the dialysis filter; for 30-day mortality: agent given in the dialysis filter (Flolan 5 ng/kg/min)
Method: The inventors conducted a retrospective study of critically ill patients treated or not treated with prostacyclin infusion during their intensive care unit (ICU) stay [Windelov et al 2010]. Ninety-four critically ill patients admitted to the ICU for medical or surgical complications, underwent hemofiltration (continuous renal replacement therapy, CRRT) with or without concomitant Flolan® (epoprostenol sodium, prostacyclin analog) treatment. Flolan® was administered at a low dose (5 ng/kg/min) in the filters to prevent these from clotting and consequently, there was only a minor spill-over of Flolan® to the systemic circulation.

whole blood hemostasis = experiment: Healthy volunteer study, 2 hours i.v. Flolan infusion: Multiplate and TEG; format: in vivo, human; conditions: eight healthy male volunteers; 4 ng/kg/min i.v. for 2 hours
Text: The term “thrombelastography” or “TEG” refers to a commercially available viscoelastic whole blood hemostasis assay employing citrated or non-anticoagulated blood. The TEG analyzer uses a small whole blood sample in a rotating cup and a pin suspended in the blood by a torsion wire, which is monitored for motion. To speed up the clot formation, a standardized amount of an activator of coagulation (e.g. kaolin, tissue factor) may be added to the cup just before the pin is placed in the cup. The TEG assay is suitable for determining important parameters in the clotting activity (clot initiation time, clot build up dynamics), clot strength (maximum amplitude (MA)) and clot degradation (fibrinolysis). The TEG system's approach to monitoring patient hemostasis is based on the premise that the end result of the hemostatic process is the clot. The clot's physical properties determine whether the patient will have normal hemostasis, or will be at increased risk for hemorrhage or thrombosis. The term “Multiplate” refers to a commercially available impedance aggregometry based whole blood platelet function analyzer employing anti-coagulated blood. The Multiplate analyzer uses a small whole blood sample in a chamber with two pairs of platinum electrodes. Standardized platelet agonists are added to the blood in the chamber to investigate specific platelet activation/signaling pathways. […]

[12] = Healthy volunteer study, 2 hours i.v. Flolan infusion: hemodynamics; format: in vivo, human; conditions: eight healthy male volunteers; 4 ng/kg/min i.v. for 2 hours; any time point
Method: The study was conducted investigating the influence of 2 hours i.v. Flolan® (epoprostenol sodium, prostacyclin analog) infusion at a dose of 4 ng/kg/min in eight healthy male volunteers.

[13] = healthy volunteers, during infusion
[14] = healthy volunteers, 1-4 ng/kg/min infusion

**Q.** With `CC#CCC(C)[C@H](O)/C=C/[C@@H]1[C@H]2C/C(=C/CCCC(=O)O)C[C@H]2C[C@H]1O` (stereo partly drawn) [iloprost] as the molecule, how does the “TEG maximum clot firmness intra-operatively” value ([1]; Whipple surgery patients, 1 ng/kg/min i.v.) read?
**A.** remained stable

**Q.** What about the sE-selectin [2] of the same molecule?
**A.** decreased significantly

**Q.** And the “nucleosome level, change intra- and postoperatively vs placebo” value [3]?
**A.** increased significantly more intra- and postoperatively in placebo patients compared to iloprost patients

**Q.** And the “syndecan-1 level vs placebo” value [3]?
**A.** trend towards higher levels of syndecan-1 in placebo patients compared to iloprost patients

**Q.** And the “thrombomodulin level, change intra- and postoperatively vs placebo” value [3]?
**A.** increased significantly more intra- and postoperatively in placebo patients compared to iloprost patients

**Q.** What about the “bleeding events vs placebo” value [4] of the same molecule?
**A.** no differences

**Q.** What about the hemodynamics vs placebo [4] of the same molecule?
**A.** no differences

**Q.** What about the “intra- and post-operative RBC received (median)” value ([5]; 1 ng/kg/min i.v.) of the same molecule?
**A.** 0 mL

**Q.** What about the lactate post-operatively ([5]; 1 ng/kg/min i.v.) of the same molecule?
**A.** remained unchanged

**Q.** What about the “post-operative hemoglobin (median)” value ([5]; 1 ng/kg/min i.v.) of the same molecule?
**A.** 6.7 mmol/L

**Q.** What about the “volume of RBC from arrival at the post-operative ward and 6 h post-operatively” value ([5]; 1 ng/kg/min i.v.) of the same molecule?
**A.** 0 mL

**Q.** What about the “28-day mortality vs placebo” value ([5]; 1 ng/kg/min i.v. intra- and post-operative) of the same molecule?
**A.** no differences

**Q.** What about the “Multiplate or TEG vs placebo” value [6] of the same molecule?
**A.** no differences

**Q.** What about the “circulating level of thrombomodulin” value ([7]; eight healthy male volunteers, continuing several hours after infusion) of the same molecule?
**A.** marked decrease

**Q.** And the “circulating level of Syndecan-1” value [7, 13]?
**A.** decreased

**Q.** What about the “circulating level of protein C” value [7, 13] of the same molecule?
**A.** decreased

**Q.** With `CCCCC[C@H](O)/C=C/[C@@H]1[C@H]2C/C(=C/CCCC(=O)O)O[C@H]2C[C@H]1O` [prostacyclin] as the molecule, how does the systolic blood pressure ([8]; acute critically ill patients, doses from 5-10 ng/kg/min) read?
**A.** lowers systolic blood pressure dose-dependently

**Q.** And the blood pressure [8, 14]?
**A.** did not influence

**Q.** And the diastolic blood pressure ([8]; human volunteers, dose of 8 ng/kg/min)?
**A.** reduced

**Q.** And the “effect on systolic or diastolic blood pressure” value ([8]; human volunteers, doses less than 8 ng/kg/min)?
**A.** no significant effect

**Q.** What about the “effect on systolic blood pressure” value ([8]; human volunteers, doses up to 16 ng/kg/min) of the same molecule?
**A.** no effect

**Q.** What about the hemodynamic effects ([8]; low-dose infusion up to 4 ng/kg/min, healthy volunteers and acute critically ill patients) of the same molecule?
**A.** negligible

**Q.** And the blood pressure ([8]; patients with traumatic brain injury, AMI treated by PCI, septic shock or CABG surgery, 0.5-2 ng/kg/min infusion)?
**A.** did not negatively influence

**Q.** And the clot formation ([1]; patients undergoing major abdominal surgery, intra- and post-operative infusion)?
**A.** improved

**Q.** And the “clot formation and platelet aggregation” value ([9]; acute critically ill patients (major abdominal surgery, PCI after AMI), 0.5-1 ng/kg/min infusion)?
**A.** neither influenced clot formation nor platelet aggregation

**Q.** And the “hemostasis, bleeding or adverse events related to impaired hemostasis” value ([9]; acute critically ill patients, low-dose infusion 0.5-1 ng/kg/min)?
**A.** does not compromise hemostasis or induce bleeding or adverse events related to impaired hemostasis

**Q.** What about the platelet aggregation ([9]; general conclusion, dose dependence) of the same molecule?
**A.** dose-dependently inhibits

**Q.** And the “hemostasis, bleeding or adverse events related to impaired hemostasis” value ([9]; healthy volunteers and acute critically ill patients, low-dose infusion up to 4 ng/kg/min)?
**A.** does not compromise hemostasis or induce bleeding or adverse events related to impaired hemostasis

**Q.** And the “clot formation and platelet aggregation” value [9, 14]?
**A.** neither influenced clot formation nor platelet aggregation

**Q.** And the “anti-thrombotic effects (TEG, Multiplate)” value ([9]; low-dose infusion)?
**A.** no measurable anti-thrombotic effects

**Q.** And the “circulating level of PAI-1” value [10]?
**A.** declined

**Q.** And the “circulating level of antithrombin” value [10]?
**A.** decreased

**Q.** And the “circulating level of thrombomodulin” value ([10]; continuing several hours after infusion)?
**A.** marked decrease

**Q.** And the “circulating level of protein C” value ([10]; hours after ceasing infusion)?
**A.** decreased

**Q.** What about the 90-day mortality [11] of the same molecule?
**A.** 34%

**Q.** What about the 365-day mortality [11] of the same molecule?
**A.** 38%

**Q.** And the “platelet count during CRRT” value [11]?
**A.** increased

**Q.** And the 30-day mortality [11]?
**A.** 21%

**Q.** And the “Multiplate and TEG values, baseline vs later” value (whole blood hemostasis)?
**A.** no changes

**Q.** What about the “blood pressure vs baseline” value [12] of the same molecule?
**A.** did not change

**Q.** And the “heart rate vs baseline” value [12]?
**A.** did not change

**Q.** For heparin, which 90-day mortality [11] is on record?
**A.** 53%

**Q.** And the 365-day mortality [11]?
**A.** 57%

**Q.** What about the “platelet count during CRRT” value [11] of the same molecule?
**A.** declined

**Q.** What about the 30-day mortality [11] of the same molecule?
**A.** 39%
